{"source": "PubChem BioAssay AID248", "about": "(DTP/NCI, 2004)", "tested_on": "L1210 leukemia ip in BDF1 mice, survival T/C", "assay": "NCI In Vivo Anticancer Drug Screen. Data for tumor model L1210 Leukemia (intraperitoneal) in B6D2F1 (BDF1) mice", "conditions": "higher = longer survival", "summary_of_the_method": "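Value reflects the ratio of survival in compound-treated mice to survival in vehicle-treated controls, with both groups carrying the same transplanted tumor.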", "note": "Several values for one entry are separate records, joined by “and”; a condition that tells them apart may be missing. Equal entries are not always repeated. Toxic doses and inconclusive results are not listed."}
{"smiles": "O=NN(CCCl)C(=O)NC1CCCCC1", "values": [{"measurement": "T/C", "setting": "endpoint: mean survival time, dose: 9.0 mg/kg/injection, schedule: Q01DX003 (ip), vehicle: carboxymethylcellulose (CMC)", "result": "154 % of control"}, {"measurement": "T/C", "setting": "endpoint: mean survival time, dose: 9.3 mg/kg/injection, schedule: Q## X004 (ip), vehicle: carboxymethylcellulose (CMC)", "result": "112 % of control"}, {"measurement": "T/C", "setting": "endpoint: mean survival time, dose: 9.37 mg/kg/injection, schedule: Q01DX001 (ip), vehicle: saline", "result": "102 % of control"}, {"measurement": "T/C", "setting": "endpoint: mean survival time, dose: 10.0 mg/kg/injection, schedule: Q01DX001 (ip), vehicle: carboxymethylcellulose (CMC)", "result": "116 % of control"}, {"measurement": "T/C", "setting": "endpoint: mean survival time, dose: 10.0 mg/kg/injection, schedule: Q01DX001 (iv), vehicle: clinical formulation", "result": "160 % of control"}, {"measurement": "T/C", "setting": "endpoint: mean survival time, dose: 10.0 mg/kg/injection, schedule: Q## X032 (ip), vehicle: carboxymethylcellulose (CMC)", "result": "122 % of control"}, {"measurement": "T/C", "setting": "endpoint: mean survival time, dose: 12.5 mg/kg/injection, schedule: Q01DX009 (ip), vehicle: Klucel (hydroxypropylcellulose) (HPC)", "result": "172 % of control"}, {"measurement": "T/C", "setting": "endpoint: mean survival time, dose: 12.5 mg/kg/injection, schedule: Q01DX Z (ip), vehicle: carboxymethylcellulose (CMC)", "result": "156 % of control"}, {"measurement": "T/C", "setting": "endpoint: mean survival time, dose: 12.5 mg/kg/injection, schedule: Q03HX024 (ip), vehicle: carboxymethylcellulose (CMC)", "result": "154 % of control"}, {"measurement": "T/C", "setting": "endpoint: mean survival time, dose: 15.0 mg/kg/injection, schedule: Q01DX001 (iv), vehicle: Klucel (hydroxypropylcellulose) (HPC)", "result": "152 % of control"}, {"measurement": "T/C", "setting": "endpoint: mean survival time, dose: 16.0 mg/kg/injection, schedule: Q01DX009 (ip), vehicle: saline with Tween-80", "result": "161 % of control"}, {"measurement": "T/C", "setting": "endpoint: mean survival time, dose: 16.0 mg/kg/injection, schedule: Q01DX Z (ip), vehicle: carboxymethylcellulose (CMC)", "result": "158 % of control"}, {"measurement": "T/C", "setting": "endpoint: mean survival time, dose: 16.0 mg/kg/injection, schedule: Q03HX003 (oral), vehicle: saline", "result": "161 % of control"}, {"measurement": "T/C", "setting": "endpoint: mean survival time, dose: 18.0 mg/kg/injection, schedule: Q01DX001 (ip), vehicle: carboxymethylcellulose (CMC)", "result": "159 % of control"}, {"measurement": "T/C", "setting": "endpoint: mean survival time, dose: 18.5 mg/kg/injection, schedule: Q01DX001 (ip), vehicle: carboxymethylcellulose (CMC)", "result": "153 % of control"}, {"measurement": "T/C", "setting": "endpoint: mean survival time, dose: 18.75 mg/kg/injection, schedule: Q01DX001 (ip), vehicle: saline", "result": "109 % of control"}, {"measurement": "T/C", "setting": "endpoint: mean survival time, dose: 20.0 mg/kg/injection, schedule: Q01DX001 (ip), vehicle: carboxymethylcellulose (CMC)", "result": "160 % of control"}, {"measurement": "T/C", "setting": "endpoint: mean survival time, dose: 20.0 mg/kg/injection, schedule: Q04DX004 (ip), vehicle: Klucel (hydroxypropylcellulose) (HPC)", "result": "162 % of control"}, {"measurement": "T/C", "setting": "endpoint: mean survival time, dose: 22.0 mg/kg/injection, schedule: Q01DX001 (ip), vehicle: carboxymethylcellulose (CMC)", "result": "156 % of control"}, {"measurement": "T/C", "setting": "endpoint: mean survival time, dose: 22.0 mg/kg/injection, schedule: Q01DX001 (iv), vehicle: saline", "result": "165 % of control"}, {"measurement": "T/C", "setting": "endpoint: mean survival time, dose: 25.0 mg/kg/injection, schedule: Q03HX008 (ip), vehicle: carboxymethylcellulose (CMC)", "result": "112 % of control"}, {"measurement": "T/C", "setting": "endpoint: mean survival time, dose: 30.0 mg/kg/injection, schedule: Q01DX001 (ip), vehicle: saline", "result": "156 % of control"}, {"measurement": "T/C", "setting": "endpoint: mean survival time, dose: 32.0 mg/kg/injection, schedule: Q01DX005 (oral), vehicle: saline", "result": "121 % of control"}, {"measurement": "T/C", "setting": "endpoint: mean survival time, dose: 50.0 mg/kg/injection, schedule: Q01DX Z (ip), vehicle: carboxymethylcellulose (CMC)", "result": "118 % of control"}, {"measurement": "T/C", "setting": "endpoint: mean survival time, dose: 50.0 mg/kg/injection, schedule: Q07DX Z (ip), vehicle: carboxymethylcellulose (CMC)", "result": "158 % of control"}, {"measurement": "T/C", "setting": "endpoint: mean survival time, dose: 50.0 mg/kg/injection, schedule: Q## X004 (ip), vehicle: carboxymethylcellulose (CMC)", "result": "160 % of control"}, {"measurement": "T/C", "setting": "endpoint: mean survival time, dose: 50.0 mg/kg/injection, schedule: Q## X015 (ip), vehicle: carboxymethylcellulose (CMC)", "result": "171 % of control"}, {"measurement": "T/C", "setting": "endpoint: mean survival time, dose: 62.0 mg/kg/injection, schedule: Q01DX Z (ip), vehicle: carboxymethylcellulose (CMC)", "result": "92 % of control"}, {"measurement": "T/C", "setting": "endpoint: mean survival time, dose: 75.0 mg/kg/injection, schedule: Q## X008 (ip), vehicle: carboxymethylcellulose (CMC)", "result": "163 % of control"}, {"measurement": "T/C", "setting": "endpoint: mean survival time, dose: 97.0 mg/kg/injection, schedule: Q01DX001 (oral), vehicle: carboxymethylcellulose (CMC)", "result": "95 % of control"}, {"measurement": "T/C", "setting": "endpoint: mean survival time, dose: 100.0 mg/kg/injection, schedule: Q01DX001 (ip), vehicle: carboxymethylcellulose (CMC)", "result": "164 % of control"}, {"measurement": "T/C", "setting": "endpoint: mean survival time, dose: 100.0 mg/kg/injection, schedule: Q01DX001 (ip), vehicle: saline", "result": "104 % of control"}, {"measurement": "T/C", "setting": "endpoint: mean survival time, dose: 100.0 mg/kg/injection, schedule: Q01DX001 (oral), vehicle: saline", "result": "95 % of control"}, {"measurement": "T/C", "setting": "endpoint: mean survival time, dose: 112.0 mg/kg/injection, schedule: Q01DX001 (ip), vehicle: carboxymethylcellulose (CMC)", "result": "164 % of control"}, {"measurement": "T/C", "setting": "endpoint: mean survival time, dose: 112.0 mg/kg/injection, schedule: Q## X001 (ip), vehicle: carboxymethylcellulose (CMC)", "result": "152 % of control"}, {"measurement": "T/C", "setting": "endpoint: mean survival time, dose: 112.0 mg/kg/injection, schedule: Q## X008 (ip), vehicle: carboxymethylcellulose (CMC)", "result": "121 % of control"}, {"measurement": "T/C", "setting": "endpoint: mean survival time, dose: 112.0 mg/kg/injection, schedule: Q## X015 (ip), vehicle: carboxymethylcellulose (CMC)", "result": "119 % of control"}, {"measurement": "T/C", "setting": "endpoint: mean survival time, dose: 200.0 mg/kg/injection, schedule: Q01DX001 (ip), vehicle: Klucel (hydroxypropylcellulose) (HPC)", "result": "110 % of control"}, {"measurement": "T/C", "setting": "endpoint: mean survival time, dose: 200.0 mg/kg/injection, schedule: Q01DX001 (ip), vehicle: carboxymethylcellulose (CMC)", "result": "104 % of control"}, {"measurement": "T/C", "setting": "endpoint: mean survival time, dose: 200.0 mg/kg/injection, schedule: Q01DX001 (oral), vehicle: carboxymethylcellulose (CMC)", "result": "159 % of control"}, {"measurement": "T/C", "setting": "endpoint: mean survival time, dose: 400.0 mg/kg/injection, schedule: Q01DX001 (ip), vehicle: carboxymethylcellulose (CMC)", "result": "93 % of control"}, {"measurement": "T/C", "setting": "endpoint: median survival time, dose: 12.5 mg/kg/injection, schedule: Q01DX001 (ip), vehicle: saline with Tween-80", "result": "99 % of control and 100 % of control"}, {"measurement": "T/C", "setting": "endpoint: median survival time, dose: 25.0 mg/kg/injection, schedule: Q01DX001 (ip), vehicle: saline with Tween-80", "result": "100 % of control and 101 % of control"}, {"measurement": "T/C", "setting": "endpoint: median survival time, dose: 25.0 mg/kg/injection, schedule: Q01DX001 (oral), vehicle: Klucel (hydroxypropylcellulose) (HPC)", "result": "158 % of control"}, {"measurement": "T/C", "setting": "endpoint: median survival time, dose: 50.0 mg/kg/injection, schedule: Q01DX001 (ip), vehicle: saline with Tween-80", "result": "112 % of control and 113 % of control"}, {"measurement": "T/C", "setting": "endpoint: median survival time, dose: 200.0 mg/kg/injection, schedule: Q01DX001 (ip), vehicle: saline with Tween-80", "result": "112 % of control and 113 % of control"}]}
